Data reported in patent US20170253607A1, “LONG-ACTING HIV PROTEASE INHIBITOR” (Shionogi & Co., Ltd., priority 2014, published 2017).

Experiments:
[1] = Evaluation of total body clearance (CLtot), intravenous administration; assay type: in vivo, Sprague-Dawley (SD); details: rat (SD), intravenous administration 0.5-10 mg/kg; CLtot = dose/AUC
In short: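 Plasma levels quantified by LC/MS/MS after intravenous tail-vein dosing (0.5-10 mg/kg, compound-dependent; n=2-3). AUC from pharmacokinetic analysis; total clearance calculated as dose/AUC.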

HIV-1 PR = HIV-1 PR (Human immunodeficiency virus type 1 group M subtype B, UniProt P04585); test: HIV-protease inhibitory activity assay (FRET peptide substrate); assay type: biochemical; details: Test Example 1
In short: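 HIV-1 PR (0.83 ng) preincubated with compounds 20 min at room temperature in 0.1 mol/L NaAc, 0.5 mol/L NaCl, 1 mmol/L EDTA, 1 mmol/L DTT, 0.05% Tween 20, pH 4.8. Cleavage of HiLyte Fluor 488/QXL 520 FRET peptide (2 μmol/L) read after 60 minutes at 485/535 nm; IC50 from four-parameter logistic fit.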

[2] = Protein binding test (equilibrium dialysis, unbound ratio fu in serum); assay type: in vitro ADME; details: rat serum, equilibrium dialysis 24 hours, 37° C., 2 μg/mL
Method: Assay condition: Evaluation method; Equilibrium dialysis method, Reaction time; 24 hours, Reaction temperature; 37° C., Assay concentration; 2 μg/mL A solution of the compound was added to each serum and mixed to prepare the serum samples with above concentration. The serum sample was put into one side of an equilibrium dialysis apparatus with dialysis membrane and phosphate buffered saline (PBS) was also put to another side of the apparatus. The apparatus was incubated at 37° C. for 24 hours. After incubation, the serum and PBS samples were collected and the compound concentrations in both samples were measured by LC/MS/MS. Fu was calculated by dividing the concentration in PBS by the concentration in the serum.

SMILES | rat_CLt [1] | IC50 (HIV-1 PR) | rat_fu [2]
COc1ccc(S(=O)(=O)N(CC(C)C)CC(O)C(Cc2ccc(OCc3ncc(Cl)cc3-c3sc4c(c3C(=O)O)CC(C)(C)CC4)cc2)NC(=O)OC2COC3(C)OCCC23)cc1 (stereo not drawn) [Compound I-93] | 2.22 mL/min/kg | 0.99 nM | <0.1%
COc1ccc(S(=O)(=O)N(CC(C)C)CC(O)C(Cc2ccc(OCc3ccccc3-c3sc4c(c3C(=O)O)CC(C)(C)CC4)cc2)NC(=O)OC2CC3OCC(O)C3C2)cc1 (stereo not drawn) [Compound I-29] | 1.54 mL/min/kg | 1.41 nM | <0.1%
COc1ccc(S(=O)(=O)N(CC(C)C)CC(O)C(Cc2ccc(OCc3ccccc3-c3ncc4c(c3C(=O)O)CCC(C)(C)C4)cc2)NC(=O)OC2COC3(C)OCCC23)cc1 (stereo not drawn) [Compound I-197] | 3.81 mL/min/kg | 1.94 nM | <0.1%
COc1ccc(S(=O)(=O)N(CC(C)C)CC(O)C(Cc2ccc(OCc3ccccc3-n3nc4c(c3C(=O)O)CC(C)(C)CC4)cc2)NC(=O)OC2COC3OCCC23)cc1 (stereo not drawn) [Compound I-807] | 0.61 mL/min/kg | 0.86 nM | <0.1%
COc1ccc(S(=O)(=O)N(CC(C)C)CC(O)C(Cc2ccc(NCc3ccc(F)cc3-c3sc4c(c3C(=O)O)CC(C)(C)CC4)cc2)NC(=O)OC2COC3(C)OCCC23)cc1 (stereo not drawn) [Compound I-275] | 2.12 mL/min/kg | 2.11 nM | <0.1%
COc1ccc(S(=O)(=O)N(CC(C)C)CC(O)C(Cc2ccc(OCc3ncccc3-c3sc4c(c3C(=O)O)CC(C)(C)CC4)cc2)NC(=O)OC2COC3(C)OCCC23)cc1 (stereo not drawn) [Compound I-88] | 2.5 mL/min/kg | 0.86 nM | <0.1%
COc1ccc(S(=O)(=O)N(CC(C)C)CC(O)C(Cc2ccc(OC3CCC(c4ccc(C(F)(F)F)cc4-c4sc5c(c4C(=O)O)CC(C)(C)CC5)C3)cc2)NC(=O)OC2COC3(C)OCCC23)cc1 (stereo not drawn) [Compound I-343] | 3.31 mL/min/kg | 15.9 nM | <0.1%
CC1(C)CCc2sc(-c3ccc(OCCN(CC(O)C(Cc4ccccc4)NC(=O)OC4COC5(C)OCCC45)S(=O)(=O)c4ccc5ncsc5c4)cc3)c(C(=O)O)c2C1 (stereo not drawn) [Compound I-165] | 1.08 mL/min/kg | 3.21 nM | <0.1%
Cc1cc(Oc2ccc(CC(NC(=O)OC3COC4OCCC34)C(O)CN(CC(C)C)S(=O)(=O)c3ccc4c(c3)OCO4)cc2)ccc1-c1sc2c(c1C(=O)O)CC(C)(C)CC2 (stereo not drawn) [Compound I-835] | 1.63 mL/min/kg | 2.81 nM | <0.1%
COc1ccc(S(=O)(=O)N(CC(C)C)CC(O)C(Cc2ccc(OCc3ccccc3-c3sc(N(C4CCCCC4)C4CCCCC4)nc3C(=O)O)cc2)NC(=O)OC2COC3(C)OCCC23)cc1 (stereo not drawn) [Compound I-74] | 3.88 mL/min/kg | 1.71 nM | <0.1%
COc1ccc(S(=O)(=O)N(CC(C)C)C[C@@H](O)[C@H](Cc2ccc(OCc3ccccc3-c3sc4c(c3C(=O)O)CC(C)(C)CC4)cc2)NC(=O)[C@H](CC(N)=O)NC(=O)c2ccc3ccccc3n2)cc1 [Compound I-30] | 1.52 mL/min/kg | 3.67 nM | <0.1%
CC(C)CN(CC(O)C(Cc1ccc(OCc2ccccc2-c2sc3c(c2C(=O)O)CC(C)(C)CC3)cc1)NC(=O)OC1COC2(C)OCCC12)S(=O)(=O)c1ccc2nc(N)sc2c1 (stereo not drawn) [Compound I-51] | 1.47 mL/min/kg | 2.65 nM | <0.1%
COc1ccc(S(=O)(=O)N(CC(C)C)CC(O)C(Cc2ccc(N3CCC(Oc4ccc(-c5sc6c(c5C(=O)O)CC(C)(C)CC6)cc4)C3)cc2)NC(=O)OC2COC3(C)OCCC23)cc1 (stereo not drawn) [Compound I-351] | 3.08 mL/min/kg | 5.09 nM | <0.1%
COc1ccc(S(=O)(=O)N(CC(C)C)CC(O)C(Cc2ccc(NCc3cnc4ccccc4c3-c3sc4c(c3C(=O)O)CC(C)(C)CC4)cc2)NC(=O)OC2COC3(C)OCCC23)cc1 (stereo not drawn) [Compound I-384] | 0.253 mL/min/kg | 6.62 nM | <0.1%
COc1ccc(S(=O)(=O)N(CC(C)C)CC(O)C(Cc2ccc(SCc3ccccc3-c3sc4c(c3C(=O)O)CC(C)(C)CC4)cc2)NC(=O)OC2COC3(C)OCCC23)cc1 (stereo not drawn) [Compound I-380] | 0.702 mL/min/kg | 5.51 nM | <0.1%
